Drawing on ChEMBL document CHEMBL1667746, “Synthesis, antimicrobial activity and structure-activity relationship study of N,N-dibenzyl-cyclohexane-1,2-diamine derivatives” (Eur J Med Chem, 2011), this text covers MIC, hemolysis and Activity for six compounds.

In one series the test system is Escherichia coli. Briefly: Antibacterial activity against Escherichia coli after 24 hrs micro dilution assay. It is filed as functional. Conditions: Escherichia coli, 24 h; read-out: MIC.
The next series has as its system Pseudomonas aeruginosa. Briefly: Antibacterial activity against Pseudomonas aeruginosa after 24 hrs micro dilution assay. Conditions: Pseudomonas aeruginosa, 24 h; read-out: MIC. The format is functional.
In the next series the test system is Staphylococcus aureus. Briefly: Antibacterial activity against Staphylococcus aureus after 24 hrs micro dilution assay. The settings on record: Staphylococcus aureus, 24 h; read-out: MIC. It is filed as functional.
In series [1] the test system is Staphylococcus epidermidis. Briefly: Antibacterial activity against Staphylococcus epidermidis after 24 hrs micro dilution assay. The format is functional. The settings on record: Staphylococcus epidermidis, 24 h; read-out: MIC.
A further series concerns Candida albicans. Briefly: Antifungal activity against Candida albicans MTCC 3017 after 24 hrs micro dilution assay. The format is functional. The settings on record: MTCC 3017, 24 h.
Another series deals with Nakaseomyces glabratus. Briefly: Antifungal activity against Candida glabrata MTCC 3019 after 24 hrs micro dilution assay. It is filed as functional. Conditions: MTCC 3019, 24 h.
The next series relates to Geotrichum candidum. Briefly: Antifungal activity against Geotrichum candidum NCIM 980 after 24 hrs micro dilution assay. The settings on record: NCIM 980, 24 h. It is filed as functional.
Series [2] in a line: Toxicity in human RBC assessed as hemolysis at 1024 ug/ml. It is filed as cell-based, Erythrocyte. The settings on record: for hemolysis at 1024 ug/ml: red blood cells, read-out: Activity; for Activity: erythrocyte.

Broadly, the MIC is the smallest concentration in the dilution series that meets the test's criterion for growth inhibition. Consider `CCc1ccc(CNC2CCCCC2NCc2ccc(CC)cc2)cc1.Cl` (stereo not drawn), for which the MIC worked out at 8 ng/mL in the series on Escherichia coli; 4 ng/mL in the series with Pseudomonas aeruginosa; 8 ng/mL in the series with Staphylococcus aureus; 8 ng/mL in series [1]; 32 ng/mL against Candida albicans; 32 ng/mL with Nakaseomyces glabratus. The same compound came in with an MIC against Geotrichum candidum of 32 ng/mL. In addition, in series [2], the hemolysis at 1024 ug/ml was found to be 38.3%.

As to `Cl.Clc1ccc(CNC2CCCCC2NCc2ccc(Cl)cc2)cc1` (stereo not drawn), the minimal inhibitory concentration (MIC) in the series with Escherichia coli turned out to be 8 ng/mL; with Pseudomonas aeruginosa it was 8 ng/mL; in the series on Staphylococcus aureus, 8 ng/mL; in series [1], 8 ng/mL; in the series with Candida albicans, 125 ng/mL; in the series on Nakaseomyces glabratus, 125 ng/mL. Also, the minimum inhibitory concentration (MIC) in the series with Geotrichum candidum was determined as 32 ng/mL. In series [2], the Activity result is “Non-toxic”.

Regarding `CC(C)(C)c1ccc(CNC2CCCCC2NCc2ccc(C(C)(C)C)cc2)cc1.Cl` (stereo not drawn), the MIC in the series with Escherichia coli was found to be 8 ng/mL; with Pseudomonas aeruginosa it was 0.6 ng/mL; in the series with Staphylococcus aureus, 4 ng/mL; in series [1], 8 ng/mL; against Candida albicans, 8 ng/mL; with Nakaseomyces glabratus, 8 ng/mL. This compound had an MIC against Geotrichum candidum of 8 ng/mL. Further, the Activity result in series [2] is reported as “Non-toxic”.

As for `Brc1ccc(CNC2CCCCC2NCc2ccc(Br)cc2)cc1.Cl` (stereo not drawn), the MIC in the series on Escherichia coli was 250 ng/mL; with Pseudomonas aeruginosa it was 32 ng/mL; in the series with Staphylococcus aureus, 16 ng/mL; in series [1], 32 ng/mL; in the series with Candida albicans it was 125 ng/mL; in the series with Nakaseomyces glabratus, 125 ng/mL. This compound also displayed an MIC against Geotrichum candidum of 32 ng/mL. Also, in series [2], the Activity entry is reported as “Non-toxic”.

For the compound `Cl.FC(F)(F)c1ccc(CNC2CCCCC2NCc2ccc(C(F)(F)F)cc2)cc1` (stereo not drawn), the MIC in the series with Escherichia coli is 32 ng/mL; in the series with Pseudomonas aeruginosa, 8 ng/mL; in the series on Staphylococcus aureus it was 8 ng/mL; in series [1], 32 ng/mL; against Candida albicans it was 125 ng/mL; against Nakaseomyces glabratus, 125 ng/mL. The compound further yielded an MIC in the series with Geotrichum candidum of 65 ng/mL. For the same compound, the Activity result in series [2] was “Non-toxic”.

For the compound `CCCCc1ccc(CNC2CCCCC2NCc2ccc(CCCC)cc2)cc1.Cl` (stereo not drawn), the MIC came out at 8 ng/mL with Escherichia coli; 0.5 ng/mL in the series on Pseudomonas aeruginosa; 8 ng/mL in the series on Staphylococcus aureus; 8 ng/mL in series [1]; 8 ng/mL against Candida albicans; 8 ng/mL with Nakaseomyces glabratus. Besides, in the series on Geotrichum candidum, the minimal inhibitory concentration (MIC) came out at 8 ng/mL. Also, in series [2], the hemolysis at 1024 ug/ml was 7.68%.
